{
  "source": "patent US8512725B2",
  "about": "“Method, material and system for controlled release of anti-microbial agents” (Bacstop Corporation Pty Ltd, priority 2004, dated 2013)",
  "test_in_all_cases": "Survival of bacteria inoculated into silver-treated water aliquots",
  "type_in_all_cases": "cell-based",
  "key": {"[1]": {"tested_on": "Bacillus cereus NCTC 10320", "conditions": "initial concentration 5.82", "method": "(§1) Several bacterial organisms, E. coli ATCC 11775, Pseudomonas aeruginosa ATCC 27853, and Bacillus cereus NCTC 10320 were inoculated into equal volumes of the abovementioned aliquots to achieve an initial bacterial concentration of approximately 10^6 cells per millilitre. After three predetermined time periods of 5 minutes, 1 hour, and 8 days, aliquots of each solution were withdrawn, and enumeration of surviving organisms was performed. All tests were conducted in duplicate.\n(§2) All results are expressed in log10 units."}, "[2]": {"tested_on": "E. coli ATCC 11775", "conditions": "initial concentration 5.81", "method": "as §1, §2"}, "[3]": {"tested_on": "Pseudomonas aeruginosa ATCC 27853", "conditions": "initial concentration 5.62", "method": "as §1, §2"}, "[4]": {"conditions": "sodium hypochlorite 0.5 ppm, period 5 min"}, "[5]": {"conditions": "sodium hypochlorite 0.5 ppm, period 1 hour"}, "[6]": {"conditions": "sodium hypochlorite 0.5 ppm, period 8 days"}},
  "data": [
    {"smiles": "[Ag]", "note": "[Silver, silver]", "values": [
      {"measurement": "surviving organisms, Bacillus cerus", "setting": "[1]; silver 50 ppb, period 5 min", "result": 4.60, "unit": "log10 units"},
      {"measurement": "surviving organisms, Bacillus cerus", "setting": "[1]; silver 50 ppb, period 1 hour", "result": 2.30, "unit": "log10 units"},
      {"measurement": "surviving organisms, Bacillus cerus", "setting": "[1]; silver 50 ppb, period 8 days", "result": 0, "unit": "log10 units"},
      {"measurement": "surviving organisms, Bacillus cerus", "setting": "[1]; silver 111 ppb, period 5 min", "result": 4.20, "unit": "log10 units"},
      {"measurement": "surviving organisms, Bacillus cerus", "setting": "[1]; silver 111 ppb, period 1 hour", "result": 2.00, "unit": "log10 units"},
      {"measurement": "surviving organisms, Bacillus cerus", "setting": "[1]; silver 111 ppb, period 8 days", "result": 0, "unit": "log10 units"},
      {"measurement": "surviving organisms, Bacillus cerus", "setting": "[1]; silver 190 ppb, period 5 min", "result": 4.28, "unit": "log10 units"},
      {"measurement": "surviving organisms, Bacillus cerus", "setting": "[1]; silver 190 ppb, period 1 hour", "result": 1.93, "unit": "log10 units"},
      {"measurement": "surviving organisms, Bacillus cerus", "setting": "[1]; silver 190 ppb, period 8 days", "result": 0, "unit": "log10 units"},
      {"measurement": "surviving organisms, Bacillus cerus", "setting": "[1]; silver 373 ppb, period 5 min", "result": 4.19, "unit": "log10 units"},
      {"measurement": "surviving organisms, Bacillus cerus", "setting": "[1]; silver 373 ppb, period 1 hour", "result": 0, "unit": "log10 units"},
      {"measurement": "surviving organisms, Bacillus cerus", "setting": "[1]; silver 373 ppb, period 8 days", "result": 0, "unit": "log10 units"},
      {"measurement": "surviving organisms, E. coli", "setting": "[2]; silver 50 ppb, period 5 min", "result": 5.81, "unit": "log10 units"},
      {"measurement": "surviving organisms, E. coli", "setting": "[2]; silver 50 ppb, period 1 hour", "result": 4.79, "unit": "log10 units"},
      {"measurement": "surviving organisms, E. coli", "setting": "[2]; silver 50 ppb, period 8 days", "result": 0, "unit": "log10 units"},
      {"measurement": "surviving organisms, E. coli", "setting": "[2]; silver 111 ppb, period 5 min", "result": 5.77, "unit": "log10 units"},
      {"measurement": "surviving organisms, E. coli", "setting": "[2]; silver 111 ppb, period 1 hour", "result": 4.48, "unit": "log10 units"},
      {"measurement": "surviving organisms, E. coli", "setting": "[2]; silver 111 ppb, period 8 days", "result": 0, "unit": "log10 units"},
      {"measurement": "surviving organisms, E. coli", "setting": "[2]; silver 190 ppb, period 5 min", "result": 5.76, "unit": "log10 units"},
      {"measurement": "surviving organisms, E. coli", "setting": "[2]; silver 190 ppb, period 1 hour", "result": 3.74, "unit": "log10 units"},
      {"measurement": "surviving organisms, E. coli", "setting": "[2]; silver 190 ppb, period 8 days", "result": 0, "unit": "log10 units"},
      {"measurement": "surviving organisms, E. coli", "setting": "[2]; silver 373 ppb, period 5 min", "result": 5.79, "unit": "log10 units"},
      {"measurement": "surviving organisms, E. coli", "setting": "[2]; silver 373 ppb, period 1 hour", "result": 3.88, "unit": "log10 units"},
      {"measurement": "surviving organisms, E. coli", "setting": "[2]; silver 373 ppb, period 8 days", "result": 0, "unit": "log10 units"},
      {"measurement": "surviving organisms, Pseudomonas aeruginosa", "setting": "[3]; silver 50 ppb, period 5 min", "result": 5.61, "unit": "log10 units"},
      {"measurement": "surviving organisms, Pseudomonas aeruginosa", "setting": "[3]; silver 50 ppb, period 1 hour", "result": 5.27, "unit": "log10 units"},
      {"measurement": "surviving organisms, Pseudomonas aeruginosa", "setting": "[3]; silver 50 ppb, period 8 days", "result": 3.23, "unit": "log10 units"},
      {"measurement": "surviving organisms, Pseudomonas aeruginosa", "setting": "[3]; silver 111 ppb, period 5 min", "result": 5.61, "unit": "log10 units"},
      {"measurement": "surviving organisms, Pseudomonas aeruginosa", "setting": "[3]; silver 111 ppb, period 1 hour", "result": 4.98, "unit": "log10 units"},
      {"measurement": "surviving organisms, Pseudomonas aeruginosa", "setting": "[3]; silver 111 ppb, period 8 days", "result": 2.59, "unit": "log10 units"},
      {"measurement": "surviving organisms, Pseudomonas aeruginosa", "setting": "[3]; silver 190 ppb, period 5 min", "result": 5.61, "unit": "log10 units"},
      {"measurement": "surviving organisms, Pseudomonas aeruginosa", "setting": "[3]; silver 190 ppb, period 1 hour", "result": 5.00, "unit": "log10 units"},
      {"measurement": "surviving organisms, Pseudomonas aeruginosa", "setting": "[3]; silver 190 ppb, period 8 days", "result": 1.10, "unit": "log10 units"},
      {"measurement": "surviving organisms, Pseudomonas aeruginosa", "setting": "[3]; silver 373 ppb, period 5 min", "result": 5.62, "unit": "log10 units"},
      {"measurement": "surviving organisms, Pseudomonas aeruginosa", "setting": "[3]; silver 373 ppb, period 1 hour", "result": 5.10, "unit": "log10 units"},
      {"measurement": "surviving organisms, Pseudomonas aeruginosa", "setting": "[3]; silver 373 ppb, period 8 days", "result": 2.00, "unit": "log10 units"}
    ]},
    {"smiles": "[Na+].[O-]Cl", "note": "[NaOCl, sodium hypochlorite, reference compound]", "values": [
      {"measurement": "surviving organisms, Bacillus cerus", "setting": "[1]; [4]", "result": 4.61, "unit": "log10 units"},
      {"measurement": "surviving organisms, Bacillus cerus", "setting": "[1]; [5]", "result": 4.61, "unit": "log10 units"},
      {"measurement": "surviving organisms, Bacillus cerus", "setting": "[1]; [6]", "result": 4.90, "unit": "log10 units"},
      {"measurement": "surviving organisms, E. coli", "setting": "[2]; [4]", "result": 5.82, "unit": "log10 units"},
      {"measurement": "surviving organisms, E. coli", "setting": "[2]; [5]", "result": 5.81, "unit": "log10 units"},
      {"measurement": "surviving organisms, E. coli", "setting": "[2]; [6]", "result": 4.48, "unit": "log10 units"},
      {"measurement": "surviving organisms, Pseudomonas aeruginosa", "setting": "[3]; [4]", "result": 5.62, "unit": "log10 units"},
      {"measurement": "surviving organisms, Pseudomonas aeruginosa", "setting": "[3]; [5]", "result": 5.63, "unit": "log10 units"},
      {"measurement": "surviving organisms, Pseudomonas aeruginosa", "setting": "[3]; [6]", "result": 4.98, "unit": "log10 units"}
    ]}
  ]
}
